Data taken from the NIST ThermoML archive (doi:10.1016/j.jct.2008.01.009).
± gives the expanded uncertainty stated by the source.

Key:
[1] = molar heat capacity at saturation pressure; conditions: Liquid, Small (less than 1 g) adiabatic calorimetry
[2] = Molar enthalpy of transition or fusion; conditions: Crystal 1; Adiabatic calorimetry
[3] = molar heat capacity at constant pressure; conditions: 101.33 kPa, Vacuum adiabatic calorimetry
[4] = for vapor or sublimation pressure / mass density: Liquid; for mass density: Vibrating tube method

C1=Cc2ccccc2CC1 [1,2-dihydronaphthalene]
molar heat capacity ([1]; 410.93 K): 257.02 ± 1.2 J/K/mol
molar heat capacity ([1]; 426.18 K): 263.43 ± 1.3 J/K/mol
molar heat capacity ([1]; 438.72 K): 268.69 ± 1.3 J/K/mol
Molar enthalpy of transition or fusion [2]: 2.5198 ± 0.00239 kcal/mol
molar heat capacity at constant pressure ([3]; 5 K, Crystal 3): 0.28 ± 0.02 J/K/mol
molar heat capacity at constant pressure ([3]; 10 K, Crystal 3): 2.69 ± 0.03 J/K/mol
molar heat capacity at constant pressure ([3]; 20 K, Crystal 3): 13.26 ± 0.083 J/K/mol
molar heat capacity at constant pressure ([3]; 30 K, Crystal 3): 24.12 ± 0.091 J/K/mol
molar heat capacity at constant pressure ([3]; 40 K, Crystal 3): 33.18 ± 0.11 J/K/mol
molar heat capacity at constant pressure ([3]; 50 K, Crystal 3): 40.87 ± 0.12 J/K/mol
molar heat capacity at constant pressure ([3]; 60 K, Crystal 3): 47.15 ± 0.13 J/K/mol
molar heat capacity at constant pressure ([3]; 70 K, Crystal 3): 52.76 ± 0.15 J/K/mol
molar heat capacity at constant pressure ([3]; 80 K, Crystal 3): 57.88 ± 0.16 J/K/mol
molar heat capacity at constant pressure ([3]; 90 K, Crystal 3): 62.79 ± 0.27 J/K/mol
molar heat capacity at constant pressure ([3]; 100 K, Crystal 3): 67.58 ± 0.27 J/K/mol
molar heat capacity at constant pressure ([3]; 120 K, Crystal 3): 77.47 ± 0.27 J/K/mol
molar heat capacity at constant pressure ([3]; 140 K, Crystal 3): 90.29 ± 0.29 J/K/mol
molar heat capacity at constant pressure ([3]; 146 K, Crystal 2): 95.59 ± 0.3 J/K/mol
molar heat capacity at constant pressure ([3]; 146 K, Crystal 3): 95.33 ± 0.3 J/K/mol
molar heat capacity at constant pressure ([3]; 160 K, Crystal 2): 104.39 ± 0.31 J/K/mol
molar heat capacity at constant pressure ([3]; 180 K, Crystal 2): 115.29 ± 0.32 J/K/mol
molar heat capacity at constant pressure ([3]; 194.4 K, Crystal 1): 126.5 ± 0.32 J/K/mol
molar heat capacity at constant pressure ([3]; 194.4 K, Crystal 2): 124.59 ± 0.32 J/K/mol
molar heat capacity at constant pressure ([3]; 200 K, Crystal 1): 129.36 ± 0.33 J/K/mol
molar heat capacity at constant pressure ([3]; 220 K, Crystal 1): 141.06 ± 0.34 J/K/mol
molar heat capacity at constant pressure ([3]; 240 K, Crystal 1): 155.01 ± 0.36 J/K/mol
molar heat capacity at constant pressure ([3]; 250 K, Liquid): 191.22 ± 0.39 J/K/mol
molar heat capacity at constant pressure ([3]; 260 K, Crystal 1): 171.24 ± 0.37 J/K/mol
molar heat capacity at constant pressure ([3]; 260 K, Liquid): 195.03 ± 0.4 J/K/mol
molar heat capacity at constant pressure ([3]; 264.38 K, Crystal 1): 175.09 ± 0.37 J/K/mol
molar heat capacity at constant pressure ([3]; 264.38 K, Liquid): 196.72 ± 0.4 J/K/mol
molar heat capacity at constant pressure ([3]; 280 K, Liquid): 202.59 ± 0.4 J/K/mol
molar heat capacity at constant pressure ([3]; 298.15 K, Liquid): 209.64 ± 0.41 J/K/mol
molar heat capacity at constant pressure ([3]; 300 K, Liquid): 210.37 ± 0.41 J/K/mol
molar heat capacity at constant pressure ([3]; 320 K, Liquid): 218.52 ± 0.42 J/K/mol
molar heat capacity at constant pressure ([3]; 340 K, Liquid): 226.88 ± 0.42 J/K/mol
molar heat capacity at constant pressure ([3]; 360 K, Liquid): 235.35 ± 0.43 J/K/mol
molar heat capacity at constant pressure ([3]; 380 K, Liquid): 243.89 ± 0.44 J/K/mol
molar heat capacity at constant pressure ([3]; 400 K, Liquid): 252.39 ± 0.45 J/K/mol
molar heat capacity at constant pressure ([3]; 420 K, Liquid): 260.86 ± 0.46 J/K/mol
molar heat capacity at constant pressure ([3]; 440 K, Liquid): 269.35 ± 0.47 J/K/mol
molar heat capacity at constant pressure ([3]; 460 K, Liquid): 277.87 ± 0.47 J/K/mol
molar heat capacity at constant pressure ([3]; 480 K, Liquid): 286.36 ± 0.49 J/K/mol
molar heat capacity at constant pressure ([3]; 500 K, Liquid): 294.85 ± 0.5 J/K/mol
vapor or sublimation pressure ([4]; 290 K, Inclined piston gauge): 0.0253 ± 0.001 kPa
vapor or sublimation pressure ([4]; 299.97 K, Inclined piston gauge): 0.0534 ± 0.0011 kPa
vapor or sublimation pressure ([4]; 310 K, Inclined piston gauge): 0.1078 ± 0.0011 kPa
vapor or sublimation pressure ([4]; 319.99 K, Inclined piston gauge): 0.2047 ± 0.0012 kPa
mass density ([4]; 323.15 K): 971.8 ± 0.2 kg/m3
vapor or sublimation pressure ([4]; 329.98 K, Inclined piston gauge): 0.3717 ± 0.0014 kPa
vapor or sublimation pressure ([4]; 339.99 K, Inclined piston gauge): 0.6472 ± 0.0018 kPa
mass density ([4]; 348.15 K): 951.1 ± 0.2 kg/m3
vapor or sublimation pressure ([4]; 349.98 K, Inclined piston gauge): 1.086 ± 0.0024 kPa
vapor or sublimation pressure ([4]; 359.98 K, Inclined piston gauge): 1.76 ± 0.0031 kPa
vapor or sublimation pressure ([4]; 362.71 K, Twin ebulliometer): 1.998 ± 0.01 kPa
vapor or sublimation pressure ([4]; 364.97 K, Inclined piston gauge): 2.214 ± 0.0038 kPa
vapor or sublimation pressure ([4]; 369.18 K, Twin ebulliometer): 2.671 ± 0.011 kPa
vapor or sublimation pressure ([4]; 369.98 K, Inclined piston gauge): 2.766 ± 0.0044 kPa
mass density ([4]; 373.15 K): 930.3 ± 0.2 kg/m3
vapor or sublimation pressure ([4]; 378.73 K, Twin ebulliometer): 4.013 ± 0.011 kPa
vapor or sublimation pressure ([4]; 385.76 K, Twin ebulliometer): 5.332 ± 0.011 kPa
vapor or sublimation pressure ([4]; 396.37 K, Twin ebulliometer): 7.999 ± 0.012 kPa
mass density ([4]; 398.15 K): 909.7 ± 0.2 kg/m3
vapor or sublimation pressure ([4]; 404.33 K, Twin ebulliometer): 10.67 ± 0.013 kPa
vapor or sublimation pressure ([4]; 410.79 K, Twin ebulliometer): 13.33 ± 0.014 kPa
vapor or sublimation pressure ([4]; 417.49 K, Twin ebulliometer): 16.67 ± 0.015 kPa
vapor or sublimation pressure ([4]; 423.06 K, Twin ebulliometer): 19.93 ± 0.017 kPa
mass density ([4]; 423.15 K): 889.1 ± 0.2 kg/m3
vapor or sublimation pressure ([4]; 430.39 K, Twin ebulliometer): 25.02 ± 0.019 kPa
vapor or sublimation pressure ([4]; 437.8 K, Twin ebulliometer): 31.18 ± 0.022 kPa
vapor or sublimation pressure ([4]; 445.24 K, Twin ebulliometer): 38.56 ± 0.025 kPa
mass density ([4]; 448.15 K): 867.8 ± 0.2 kg/m3
vapor or sublimation pressure ([4]; 452.74 K, Twin ebulliometer): 47.37 ± 0.029 kPa
vapor or sublimation pressure ([4]; 460.3 K, Twin ebulliometer): 57.81 ± 0.033 kPa
vapor or sublimation pressure ([4]; 467.91 K, Twin ebulliometer): 70.1 ± 0.038 kPa
mass density ([4]; 473.15 K): 846.1 ± 0.2 kg/m3
vapor or sublimation pressure ([4]; 475.59 K, Twin ebulliometer): 84.53 ± 0.044 kPa
vapor or sublimation pressure ([4]; 483.32 K, Twin ebulliometer): 101.33 ± 0.05 kPa
vapor or sublimation pressure ([4]; 491.1 K, Twin ebulliometer): 120.79 ± 0.06 kPa
vapor or sublimation pressure ([4]; 498.94 K, Twin ebulliometer): 143.26 ± 0.07 kPa
vapor or sublimation pressure ([4]; 506.84 K, Twin ebulliometer): 169.03 ± 0.07 kPa
Triple point temperature ([4]; Crystal 1, Adiabatic calorimetry): 264.38 ± 0.05 K
